In patent US20240067668A1, “HETEROARYL DERIVATIVE COMPOUND AND USE THEREOF” (VORONOI INC., priority 2020, published 2024):

Key:
[1] = system: BaF3-EGFR (Del19/T790M/C797S) cells; test: Inhibitory activity on Ba/F3 cell proliferation (CellTiter-Glo, 72 hours); type: cell-based; conditions: Ba/F3 cells expressing EGFR Del19/T790M/C797S
Method: (§1) The following experiments were performed to evaluate the inhibitory activity of the compound represented by Chemical Formula 1 according to the present invention on the proliferation of Ba/F3 cells expressing EGFR mutants.
(§2) BaF3-EGFR (WT) and BaF3-EGFR (Del19/T790M/C797S) cells were seeded in a clear bottom white 96-well plate at a density of 3×10^3/100 μl/well, and then 0.5 μl/well of the culture medium, containing the compounds at 12 concentrations (0.00001-2 mM) serially diluted in 3 folds and the DMSO control, was added to a final concentration of 0.00005-10 μM, followed by culturing in a 37° C. CO2 incubator for 72 hours. After 72 hours, the plates treated with the compounds were taken out, treated with 100 μl/well of CellTiter-Glo® 2.0 Assay (Promega) solution, and mixed well. After mixing well at room temperature for about 10 minutes, […] was measured using a microplate reader. As to Data, GI50 (μM) values were calculated using GraphPad Prism 8.3.0 (GraphPad software Inc., San Diego) as percentages in proportion to vehicle-based treated cells. The result values were calculated as a cell growth rate (%) compared to the control group. A graph was created using the GraphPad Prism version 5.0 program, and GI50 (μM) values were calculated.

BaF3-EGFR (WT) cells = test: as above; type: cell-based; conditions: Ba/F3 cells expressing EGFR WT
Method: as §1, §2

EGFR Del19/T790M/C797S = EGFR Del19/T790M/C797S (Homo sapiens, UniProt P00533, C797S/T790M, form not given); test: Enzyme IC50, EGFR Del19/T790M/C797S; type: biochemical
Chain of EGFR Del19/T790M/C797S (P00533 25-1210 T790M/C797S, form open): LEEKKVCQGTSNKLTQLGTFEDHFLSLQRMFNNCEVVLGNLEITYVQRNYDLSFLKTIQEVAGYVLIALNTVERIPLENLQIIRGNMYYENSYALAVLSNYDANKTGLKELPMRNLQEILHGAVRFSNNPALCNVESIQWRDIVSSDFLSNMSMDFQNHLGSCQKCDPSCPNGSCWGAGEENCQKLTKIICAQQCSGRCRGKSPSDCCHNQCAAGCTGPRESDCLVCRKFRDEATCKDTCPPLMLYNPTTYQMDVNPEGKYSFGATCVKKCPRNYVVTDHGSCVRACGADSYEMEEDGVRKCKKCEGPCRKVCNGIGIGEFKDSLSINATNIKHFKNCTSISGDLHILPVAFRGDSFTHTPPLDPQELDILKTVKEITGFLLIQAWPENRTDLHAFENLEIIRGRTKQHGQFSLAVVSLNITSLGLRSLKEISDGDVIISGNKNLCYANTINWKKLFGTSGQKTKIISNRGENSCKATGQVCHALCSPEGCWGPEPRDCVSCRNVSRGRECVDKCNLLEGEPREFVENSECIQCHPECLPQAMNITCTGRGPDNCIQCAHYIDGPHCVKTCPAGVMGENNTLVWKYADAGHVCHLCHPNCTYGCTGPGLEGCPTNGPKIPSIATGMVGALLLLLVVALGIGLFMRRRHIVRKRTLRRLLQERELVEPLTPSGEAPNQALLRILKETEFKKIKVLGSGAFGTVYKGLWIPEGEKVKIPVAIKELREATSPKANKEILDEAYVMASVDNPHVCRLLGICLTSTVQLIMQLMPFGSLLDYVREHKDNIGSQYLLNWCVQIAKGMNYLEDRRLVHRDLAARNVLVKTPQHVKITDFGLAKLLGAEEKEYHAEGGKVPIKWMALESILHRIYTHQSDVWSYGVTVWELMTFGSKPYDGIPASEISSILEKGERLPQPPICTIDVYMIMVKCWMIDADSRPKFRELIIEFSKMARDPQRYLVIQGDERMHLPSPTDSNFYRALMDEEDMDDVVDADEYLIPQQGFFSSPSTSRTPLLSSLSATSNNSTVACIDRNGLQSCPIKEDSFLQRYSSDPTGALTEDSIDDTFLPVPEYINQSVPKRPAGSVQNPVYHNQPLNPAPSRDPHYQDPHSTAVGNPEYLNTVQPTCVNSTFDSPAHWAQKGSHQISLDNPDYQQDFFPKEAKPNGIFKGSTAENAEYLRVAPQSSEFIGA

| SMILES | GI50 [1] | GI50 (BaF3-EGFR (WT) cells) | IC50 (EGFR Del19/T790M/C797S) |
| --- | --- | --- | --- |
| CN1CCN(c2cc(OCC(F)(F)F)c(Nc3nc(Nc4ccc5nccnc5c4P(C)(C)=O)c4cc[nH]c4n3)cc2-c2cnn(C)c2)CC1 [Example 1, dimethyl (6-((2-((5-(1-methyl-1H-pyrazol-4-yl)-4-(4-methylpiperazin-1-yl)-2-(2,2,2-trifluoroethoxy)phenyl)amino)-7H-pyrrolo[2,3-d]pyrimidin-4-yl)amino)quinoxalin-5-yl)phosphine oxide] | 0.05 to 0.1 µM | > 0.1 µM | ≤ 0.05 µM |
| Cn1cc(-c2cc(Nc3nc(Nc4ccc5nccnc5c4P(C)(C)=O)c4cc[nH]c4n3)c(OCC(F)(F)F)cc2N2CCOCC2)cn1 [Example 2, dimethyl (6-((2-((5-(1-methyl-1H-pyrazol-4-yl)-4-morpholino-2-(2,2,2-trifluoroethoxy)phenyl)amino)-7H-pyrrolo[2,3-d]pyrimidin-4-yl)amino)quinoxalin-5-yl) phosphine oxide] | ≤ 0.05 µM | > 0.1 µM | ≤ 0.05 µM |
| Cn1cc(-c2cc(Nc3nc(Nc4ccc5nccnc5c4P(C)(C)=O)c4cc[nH]c4n3)c(OCC(F)(F)F)cc2F)cn1 [Example 3, (6-((2-((4-fluoro-5-(1-methyl-1H-pyrazol-4-yl)-2-(2,2,2-trifluoroethoxy)phenyl)amino)-7H-pyrrolo[2,3-d]pyrimidin-4-yl)amino)quinoxalin-5-yl) dimethyl-phosphine oxide] | > 0.1 µM | > 0.1 µM | ≤ 0.05 µM |
| CN1CCN(C2CCN(c3cc(OCC(F)(F)F)c(Nc4nc(Nc5ccc6nccnc6c5P(C)(C)=O)c5cc[nH]c5n4)cc3-c3cnn(C)c3)CC2)CC1 [Example 4, dimethyl (6-((2-((5-(1-methyl-1H-pyrazol-4-yl)-4-(4-(4-methylpiperazin-1-yl)piperidin-1-yl)-2-(2,2,2-trifluoroethoxy)phenyl)amino)-7H-pyrrolo[2,3-d]pyrimidin-4-yl)amino)quinoxalin-5-yl) phosphine oxide] | 0.05 to 0.1 µM | > 0.1 µM | ≤ 0.05 µM |
| Cn1cc(-c2ccc(OCC(F)(F)F)c(Nc3nc(Nc4ccc5nccnc5c4P(C)(C)=O)c4cc[nH]c4n3)c2)cn1 [Example 5, dimethyl (6-((2-((5-(1-methyl-1H-pyrazol-4-yl)-2-(2,2,2-trifluoroethoxy)phenyl)amino)-7H-pyrrolo[2,3-d]pyrimidin-4-yl)amino)quinoxalin-5-yl)phosphine oxide] | > 0.1 µM | 0.05 to 0.1 µM | 0.05 to 0.1 µM |
| Cn1cc(-c2cc(Nc3nc(Nc4ccc5nccnc5c4P(C)(C)=O)c4cc[nH]c4n3)c(OCC(F)(F)F)cc2N2CCC(N3CCOCC3)CC2)cn1 [Example 6, dimethyl (6-((2-((5-(1-methyl-1H-pyrazol-4-yl)-4-(4-morpholino-piperidin-1-yl)-2-(2,2,2-trifluoroethoxy)phenyl)amino)-7H-pyrrolo[2,3-d]pyrimidin-4-yl)amino)quinoxalin-5-yl)phosphine oxide] | ≤ 0.05 µM | > 0.1 µM | ≤ 0.05 µM |
| Cc1cc(Nc2nc(Nc3ccc4nccnc4c3P(C)(C)=O)c3cc[nH]c3n2)c(OCC(F)(F)F)cc1N1CCC(N2CCN(C)CC2)CC1 [Example 8, dimethyl (6-((2-((5-methyl-4-(4-(4-methylpiperazin-1-yl)piperidin-1-yl)-2-(2,2,2-trifluoroethoxy)phenyl)amino)-7H-pyrrolo[2,3-d]pyrimidin-4-yl)amino)quinoxalin-5-yl)phosphine oxide] | ≤ 0.05 µM | > 0.1 µM | ≤ 0.05 µM |
| Cc1cc(Nc2nc(Nc3ccc4nccnc4c3P(C)(C)=O)c3cc[nH]c3n2)c(OCC(F)(F)F)cc1N1CCN(C)CC1 [Example 9, dimethyl (6-((2-((5-methyl-4-(4-methylpiperazin-1-yl)-2-(2,2,2-trifluoroethoxy)phenyl)amino)-7H-pyrrolo[2,3-d]pyrimidin-4-yl)amino)quinoxalin-5-yl)phosphine oxide] | > 0.1 µM | > 0.1 µM | ≤ 0.05 µM |
| Cc1cc(Nc2nc(Nc3cnc4ccccc4c3P(C)(C)=O)c3cc[nH]c3n2)c(OCC(F)(F)F)cc1N1CCC(N2CCN(C)CC2)CC1 [Example 13, dimethyl (3-((2-((5-methyl-4-(4-(4-methylpiperazin-1-yl)piperidin-1-yl)-2-(2,2,2-trifluoroethoxy)phenyl)amino)-7H-pyrrolo[2,3-d]pyrimidin-4-yl)amino)quinolin-4-yl)phosphine oxide] | > 0.1 µM | > 0.1 µM | ≤ 0.05 µM |
| COc1cc(N2CCN(C)CC2)c(-c2cnn(C)c2)cc1Nc1nc(Nc2ccc3nccnc3c2P(C)(C)=O)c2cc[nH]c2n1 [Example 21, (6-((2-((2-methoxy-5-(1-methyl-1H-pyrazol-4-yl)-4-(4-methylpiperazin-1-yl)phenyl)amino)-7H-pyrrolo[2,3-d]pyrimidin-4-yl)amino)quinoxalin-5-yl) dimethyl-phosphine oxide] | ≤ 0.05 µM | > 0.1 µM | ≤ 0.05 µM |
| COc1cc(N2CCN(C3CCCC3)CC2)c(-c2cnn(C)c2)cc1Nc1nc(Nc2ccc3nccnc3c2P(C)(C)=O)c2cc[nH]c2n1 [Example 22, (6-((2-((4-(4-cyclopentyl-piperazin-1-yl)-2-methoxy-5-(1-methyl-1H-pyrazol-4-yl)phenyl)amino)-7H-pyrrolo[2,3-d]pyrimidin-4-yl)amino)quinoxalin-5-yl) dimethyl-phosphine oxide] | ≤ 0.05 µM | > 0.1 µM | ≤ 0.05 µM |
| COc1cc(N2C[C@@H](C)O[C@@H](C)C2)c(-c2cnn(C)c2)cc1Nc1nc(Nc2ccc3nccnc3c2P(C)(C)=O)c2cc[nH]c2n1 [Example 23, (6-((2-((4-((2s, 6R)-2,6-dimethyl-morpholino)-2-methoxy-5-(1-methyl-1H-pyrazol-4-yl)phenyl)amino)-7H-pyrrolo[2,3-d]pyrimidin-4-yl)amino)quinoxalin-5-yl)dimethyl-phosphine oxide] | ≤ 0.05 µM | > 0.1 µM | ≤ 0.05 µM |
| Cc1cc(Nc2nc(Nc3ccc4nccnc4c3P(C)(C)=O)c3cc[nH]c3n2)c2c(c1N1CCN(C)CC1)CCO2 [Example 121, dimethyl (6-((2-((5-methyl-4-(4-methylpiperazin-1-yl)-2,3-dihydrobenzo-furan-7-yl)amino)-7H-pyrrolo[2,3-d]pyrimidin-4-yl)amino)quinoxalin-5-yl)phosphine oxide] | > 0.1 µM | > 0.1 µM |  |
| CN1CCN(c2c(-c3cnn(C)c3)cc(Nc3nc(Nc4ccc5nccnc5c4P(C)(C)=O)c4cc[nH]c4n3)c3c2OCO3)CC1 [Example 129, dimethyl (6-((2-((6-(1-methyl-1H-pyrazol-4-yl)-7-(4-methylpiperazin-1-yl)benzo[d] [1,3]dioxol-4-yl)amino)-7H-pyrrolo[2,3-d]pyrimidin-4-yl)amino)quinoxalin-5-yl)phosphine oxide] | ≤ 0.05 µM | > 0.1 µM |  |
| CN1CCN(c2c(-c3cnn(C)c3)cc(Nc3nc(Nc4ccc5nccnc5c4P(C)(C)=O)c4cc[nH]c4n3)c3c2OCCO3)CC1 [Example 130, dimethyl (6-((2-((7-(1-methyl-1H-pyrazol-4-yl)-8-(4-methylpiperazin-1-yl)-2,3-dihydrobenzo [b][1,4]dioxin-5-yl)amino)-7H-pyrrolo[2,3-d]pyrimidin-4-yl)amino)quinoxalin-5-yl)phosphine oxide] | ≤ 0.05 µM | > 0.1 µM |  |
